In brackets after ≈: the same amount, converted by molar mass. Like-named read-outs stand apart in the source and are kept apart here.

The format of test [1] is in vivo, human.
For test [2], the system named is ethanol treated spores. It counts as cell-based. Conditions: lysozyme addition to the plates (2 ug/ml); Sweet B or M2GSC media (FIG. 14).
In test [3] the test system is M. morganii isolates. In words: microbe, parasite or virus in culture. Conditions: Morganella morganii. It counts as cell-based.
The test system of test [4] is P. pennerii isolates. In words: organism not typed. It is filed as cell-based, Proteus pennerii.
The mark [5] stands for this setting: 10 patients with recurrent C. difficile treated with ethanol treated spore preparations.

Regarding Clostridium_butyricum, in test [1] (human, in vivo), the “% of Patients OTU Engrafts” value is reported as 20%.

With Clostridium_mayombei, in test [1] (setting [5]), the “% of Patients OTU Engrafts” value is given as 50%.

For Clostridium_clostridioforme, the “% of Patients OTU Engrafts” value in test [1] (setting [5]) worked out at 60%.

Clostridium_disporicum: in test [1] (setting [5]), the “% of Patients OTU Engrafts” value is on record as 30%.

On to lysozyme, for which the effect on germination result in test [2] was “small effect”.

For Clostridium_symbiosum, in test [1] (setting [5]), the “% of Patients OTU Engrafts” value is given as 50%.

As to Bacteroides_fragilis, in test [1] (setting [5]), the “% of Patients OTU Engrafts” value turned out to be 30%.

For the molecule Clostridium_bartlettii, in test [1] (setting [5]), the “% of Patients OTU Engrafts” value was found to be 70%.

As to `C[C@@H](O)[C@H]1C(=O)N2C(C(=O)O)=C(SCCN=CN)C[C@H]12` [imipenem], the figures for the MIC in test [3] and in test [4] were 2 to 4 µg/mL (≈ 6.68 to 13.4 µM) and 4 to 8 µg/mL (≈ 13.4 to 26.7 µM), respectively.
